Laboratory results published in ChEMBL document CHEMBL5032521, “Design, synthesis and anti-tumor evaluation of 1,2,4-triazol-3-one derivatives and pyridazinone derivatives as novel CXCR2 antagonists” (Eur J Med Chem, 2021).
The source made the active and inactive calls. The calls are words filed in the database; no cut-off is given here.

Key:
[1] = target: T1, C-X-C chemokine receptor type 2 (Homo sapiens) (UniProt P25025); assay: Antagonist activity at CXCR2 (unknown origin) at 10 uM by calcium flux assay relative to control; type: functional
T1 sequence (whole entry): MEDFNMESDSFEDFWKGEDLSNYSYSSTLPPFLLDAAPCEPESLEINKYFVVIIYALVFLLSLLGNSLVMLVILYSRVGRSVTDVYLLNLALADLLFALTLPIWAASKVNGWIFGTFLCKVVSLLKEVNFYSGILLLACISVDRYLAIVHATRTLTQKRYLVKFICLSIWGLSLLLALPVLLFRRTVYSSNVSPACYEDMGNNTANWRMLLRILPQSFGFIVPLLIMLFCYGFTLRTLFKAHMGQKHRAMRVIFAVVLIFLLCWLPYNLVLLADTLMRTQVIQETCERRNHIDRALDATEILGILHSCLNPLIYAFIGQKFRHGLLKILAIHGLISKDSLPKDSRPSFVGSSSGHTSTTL

MDA-MB-231 [2] = assay: Antimigratory activity against human MDA-MB-231 cells assessed as reduction in cell migration at 2 uM measured after 24 hrs by wound healing assay relative to control; type: functional; design: scale not given: the % may be the effect or the level left
MDA-MB-231 [3] = assay: Antimigratory activity against human MDA-MB-231 cells assessed as reduction in cell migration at 2 uM measured after 24 hrs by crystal violet staining based transwell assay relative to control; type: functional; design: scale not given: the % may be the effect or the level left
HUVEC [4] = assay: Anti-angiogenesis activity in HUVEC cells assessed as reduction in blood vessel area at 2 uM measured after 12 hrs by inverted microscopic analysis relative to control; type: functional, Homo sapiens; design: scale not given: the % may be the effect or the level left
MDA-MB-231 [5] = assay: Inhibition of epithelial-mesenchymal transition in human MDA-MB-231 cells assessed as upregulation of E-cadherin expression at 10 uM measured after 24 hrs by Western blot assay; type: functional, cell-based
MDA-MB-231 [6] = assay: Inhibition of epithelial-mesenchymal transition in human MDA-MB-231 cells assessed as downregulation of fibronectin expression at 10 uM measured after 24 hrs by Western blot assay; type: functional, cell-based
MDA-MB-231 [7] = assay: Inhibition of epithelial-mesenchymal transition in human MDA-MB-231 cells assessed as downregulation of vimentin expression at 10 uM measured after 24 hrs by Western blot assay; type: functional, cell-based
MDA-MB-231 [8] = assay: Inhibition of epithelial-mesenchymal transition in human MDA-MB-231 cells assessed as downregulation of beta-catenin expression at 10 uM measured after 24 hrs by Western blot assay; type: functional, cell-based
HUVEC [9] = assay: Down-regulation of VEGF expression in HUVEC cells assessed as 10 uM measured after 24 hrs by Western blot assay; type: functional, cell-based; conditions: Homo sapiens
MDA-MB-231 [10] = assay: Induction of ROS production in human MDA-MB-231 cells assessed as increase in mean fluorescence intensity at 10 uM measured after 24 hrs by DCFH-DA staining based inverted microscopic analysis; type: functional, cell-based
MDA-MB-231 [11] = assay: Synergistic antiproliferative activity against human MDA-MB-231 cells assessed as inhibition of cell growth at 10 uM incubated for 72 hrs in presence of Sorafenib by MTT assay; type: functional, cell-based; conditions: MDA-MB-231, 72 h
MDA-MB-231 [12] = assay: Synergistic antiproliferative activity against human MDA-MB-231 cells assessed as inhibition of cell growth at 25 uM incubated for 72 hrs in presence of Sorafenib by MTT assay; type: functional, cell-based; conditions: MDA-MB-231, 72 h
MDA-MB-231 [13] = assay: Antiproliferative activity against human MDA-MB-231 cells assessed as reduction in cell viability measured after 72 hrs by MTT assay; type: functional, cell-based; conditions: MDA-MB-231, 72 h
MDA-MB-231 [14] = assay: Inhibition of PI3K signalling in human MDA-MB-231 cells assessed as decrease in PI3K phosphorylation at 5 to 10 uM measured after 24 hrs by Western blot assay; type: cell-based; conditions: dose 5-10 µM
MDA-MB-231 [15] = assay: Inhibition of PI3K signalling in human MDA-MB-231 cells assessed as decrease in AKT phosphorylation at 5 to 10 uM measured after 24 hrs by Western blot assay; type: cell-based; conditions: dose 5-10 µM
Caco-2 = assay: Cytotoxicity against human Caco2 cells; type: functional, cell-based

## Cc1ccc(-n2nc(C(=O)Nc3cccc(C(=O)N(C)C)c3O)n(C)c2=O)cc1
[1]
  inhibition: 24.3%

## Cc1ccc(-n2nc(C(=O)Nc3cccc(C(=O)N(C)C)c3O)c(C)cc2=O)cc1
[1]
  inhibition: 26.9%

## Cc1ccccc1-n1nc(C(=O)Nc2cccc(C(=O)N(C)C)c2O)c(C)cc1=O
[1]
  inhibition: 6.1%

## C#Cc1ccc(-n2nc(C(=O)Nc3cccc(C(=O)N(C)C)c3O)n(C)c2=O)cc1
[1]; filed as antagonist
  inhibition: 49.2%

## COc1ccc(-n2nc(C(=O)Nc3cccc(C(=O)N(C)C)c3O)c(C)cc2=O)cc1
[1]
  inhibition: 34.6%

## CN(C)C(=O)c1cccc(NC(=O)c2nn(-c3ccc(Cl)cc3)c(=O)n2C)c1O
[1]
  inhibition: 27.2%

## O=C(Nc1ccc([N+](=O)[O-])cc1O)Nc1ccccc1Br
MDA-MB-231 [2]
  Activity: 52.3%
MDA-MB-231 [3]
  Activity: 44%
HUVEC [4]
  Activity: 55.2%
MDA-MB-231 [5]
  inhibition: Active
MDA-MB-231 [6]
  inhibition: Active
MDA-MB-231 [7]
  inhibition: Active
MDA-MB-231 [8]
  inhibition: Active
HUVEC [9]
  Activity: inactive
MDA-MB-231 [10]
  Activity: Active

## Cc1cc(=O)n(-c2ccc(Cl)cc2Cl)nc1C(=O)Nc1cccc(C(=O)N(C)C)c1O
[1]
  inhibition: -8.2%

## Cc1cc(=O)n(-c2ccccc2)nc1C(=O)Nc1cccc(C(=O)N(C)C)c1O
[1]
  inhibition: 3.2%

## Cc1cc(=O)n(-c2ccc(F)cc2)nc1C(=O)Nc1cccc(C(=O)N(C)C)c1O
[1]
  inhibition: -0.8%

## CN(C)C(=O)c1cccc(NC(=O)c2nn(-c3ccc(C(F)(F)F)cc3)c(=O)n2C)c1O
[1]
  inhibition: 21.6%

## Cc1cc(=O)n(-c2ccc(C(F)(F)F)cc2)nc1C(=O)Nc1cccc(C(=O)N(C)C)c1O
[1]; filed as antagonist
  inhibition: 69.4%
MDA-MB-231 [2]
  Activity: 52%
MDA-MB-231 [3]
  Activity: 49.7%
HUVEC [4]
  Activity: 59.2%
MDA-MB-231 [11]
  IC50: 5.93 µM
MDA-MB-231 [12]
  IC50: 2.96 µM
MDA-MB-231 [13]
  IC50: > 25 µM
MDA-MB-231 [14]
  inhibition: Active
MDA-MB-231 [15]
  inhibition: Active
MDA-MB-231 [5]
  inhibition: Active
MDA-MB-231 [6]
  inhibition: Active
MDA-MB-231 [7]
  inhibition: Active
MDA-MB-231 [8]
  inhibition: Active
HUVEC [9]
  Activity: Active
MDA-MB-231 [10]
  Activity: Active

## Cc1cccc(-n2nc(C(=O)Nc3cccc(C(=O)N(C)C)c3O)n(C)c2=O)c1
[1]; filed as antagonist
  inhibition: 43.8%

## CN(C)C(=O)c1cccc(NC(=O)c2nn(-c3ccc(Cl)c(Cl)c3)c(=O)n2C)c1O
[1]
  inhibition: 32.3%

## Cc1cc(=O)n(-c2ccc(C(C)(C)C)cc2)nc1C(=O)Nc1cccc(C(=O)N(C)C)c1O
[1]
  inhibition: 20.4%

## Cc1cc(=O)n(-c2ccc(Cl)c(Cl)c2)nc1C(=O)Nc1cccc(C(=O)N(C)C)c1O
[1]
  inhibition: 10.9%

## CNC(=O)c1cc(Oc2ccc(NC(=O)Nc3ccc(Cl)c(C(F)(F)F)c3)cc2)ccn1 [SORAFENIB]
MDA-MB-231 [13]
  IC50: 8.52 µM

## CC[C@@H](Nc1c(Nc2cccc(C(=O)N(C)C)c2O)c(=O)c1=O)c1ccc(C)o1 [NAVARIXIN ANHYDROUS]
Caco-2
  IC50: 18.8 µM

## Cc1ccccc1-n1nc(C(=O)Nc2cccc(C(=O)N(C)C)c2O)n(C)c1=O
[1]; filed as antagonist
  inhibition: 43.8%

## CN(C)C(=O)c1cccc(NC(=O)c2nn(-c3ccc(C(C)(C)C)cc3)c(=O)n2C)c1O
[1]; filed as antagonist
  inhibition: 40.9%

## Cc1cccc(-n2nc(C(=O)Nc3cccc(C(=O)N(C)C)c3O)c(C)cc2=O)c1
[1]
  inhibition: 11.2%

## CN(C)C(=O)c1cccc(NC(=O)c2nn(-c3ccc(F)cc3)c(=O)n2C)c1O
[1]
  inhibition: 12.7%

## C#Cc1ccc(-n2nc(C(=O)Nc3cccc(C(=O)N(C)C)c3O)c(C)cc2=O)cc1
[1]
  inhibition: 1.5%

## CN(C)C(=O)c1cccc(NC(=O)c2nn(-c3ccc(Cl)cc3Cl)c(=O)n2C)c1O
[1]
  inhibition: 26.6%

## CN(C)C(=O)c1cccc(NC(=O)c2nn(-c3ccccc3)c(=O)n2C)c1O
[1]
  inhibition: 18.6%
